Literature values, collected in patent US6631329B1, “Use of the crystal structure of Staphylococcus aureus isoleucyl-tRNA synthetase in antibiotic design” (Yale University, priority 1999, dated 2003).

Tests used:
MRSA [1] = settings: topical use
MRSA [2] = system: MRSA
MRSA [3] = settings: in vivo
[4] = target: T1, isoleucyl-tRNA synthetase (IRS) (Staphylococcus aureus, UniProt P41972); settings: with respect to isoleucine
T1 sequence (P41972 1-917): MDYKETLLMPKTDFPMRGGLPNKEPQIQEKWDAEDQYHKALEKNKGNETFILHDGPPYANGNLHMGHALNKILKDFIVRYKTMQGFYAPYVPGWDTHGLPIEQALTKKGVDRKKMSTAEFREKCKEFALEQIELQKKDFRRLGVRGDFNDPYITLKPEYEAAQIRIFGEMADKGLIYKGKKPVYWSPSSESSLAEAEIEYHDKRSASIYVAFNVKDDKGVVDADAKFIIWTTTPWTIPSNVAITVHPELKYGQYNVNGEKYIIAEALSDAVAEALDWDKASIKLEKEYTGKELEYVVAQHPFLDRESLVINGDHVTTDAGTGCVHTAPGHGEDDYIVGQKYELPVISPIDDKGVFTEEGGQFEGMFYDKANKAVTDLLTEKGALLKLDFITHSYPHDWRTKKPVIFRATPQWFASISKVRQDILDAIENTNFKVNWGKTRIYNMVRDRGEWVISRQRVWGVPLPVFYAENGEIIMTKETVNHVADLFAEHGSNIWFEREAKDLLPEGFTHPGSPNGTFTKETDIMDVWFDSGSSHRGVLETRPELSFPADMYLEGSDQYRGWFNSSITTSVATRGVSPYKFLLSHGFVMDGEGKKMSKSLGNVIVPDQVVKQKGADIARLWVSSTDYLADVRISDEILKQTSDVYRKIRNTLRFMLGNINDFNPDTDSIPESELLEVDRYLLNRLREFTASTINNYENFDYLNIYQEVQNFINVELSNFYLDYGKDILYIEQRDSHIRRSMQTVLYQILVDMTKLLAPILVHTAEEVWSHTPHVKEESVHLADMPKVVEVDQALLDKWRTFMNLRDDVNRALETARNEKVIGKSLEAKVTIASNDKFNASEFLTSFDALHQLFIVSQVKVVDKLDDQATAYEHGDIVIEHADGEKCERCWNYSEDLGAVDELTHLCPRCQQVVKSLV

[5] = target: MURSA isoleucyl-tRNA synthetase (Staphylococcus aureus, UniProt P41368)
[6] = target: T2, human isoleucyl-tRNA synthetase (Homo sapiens, UniProt P41252)
T2 sequence (P41252 1-1262): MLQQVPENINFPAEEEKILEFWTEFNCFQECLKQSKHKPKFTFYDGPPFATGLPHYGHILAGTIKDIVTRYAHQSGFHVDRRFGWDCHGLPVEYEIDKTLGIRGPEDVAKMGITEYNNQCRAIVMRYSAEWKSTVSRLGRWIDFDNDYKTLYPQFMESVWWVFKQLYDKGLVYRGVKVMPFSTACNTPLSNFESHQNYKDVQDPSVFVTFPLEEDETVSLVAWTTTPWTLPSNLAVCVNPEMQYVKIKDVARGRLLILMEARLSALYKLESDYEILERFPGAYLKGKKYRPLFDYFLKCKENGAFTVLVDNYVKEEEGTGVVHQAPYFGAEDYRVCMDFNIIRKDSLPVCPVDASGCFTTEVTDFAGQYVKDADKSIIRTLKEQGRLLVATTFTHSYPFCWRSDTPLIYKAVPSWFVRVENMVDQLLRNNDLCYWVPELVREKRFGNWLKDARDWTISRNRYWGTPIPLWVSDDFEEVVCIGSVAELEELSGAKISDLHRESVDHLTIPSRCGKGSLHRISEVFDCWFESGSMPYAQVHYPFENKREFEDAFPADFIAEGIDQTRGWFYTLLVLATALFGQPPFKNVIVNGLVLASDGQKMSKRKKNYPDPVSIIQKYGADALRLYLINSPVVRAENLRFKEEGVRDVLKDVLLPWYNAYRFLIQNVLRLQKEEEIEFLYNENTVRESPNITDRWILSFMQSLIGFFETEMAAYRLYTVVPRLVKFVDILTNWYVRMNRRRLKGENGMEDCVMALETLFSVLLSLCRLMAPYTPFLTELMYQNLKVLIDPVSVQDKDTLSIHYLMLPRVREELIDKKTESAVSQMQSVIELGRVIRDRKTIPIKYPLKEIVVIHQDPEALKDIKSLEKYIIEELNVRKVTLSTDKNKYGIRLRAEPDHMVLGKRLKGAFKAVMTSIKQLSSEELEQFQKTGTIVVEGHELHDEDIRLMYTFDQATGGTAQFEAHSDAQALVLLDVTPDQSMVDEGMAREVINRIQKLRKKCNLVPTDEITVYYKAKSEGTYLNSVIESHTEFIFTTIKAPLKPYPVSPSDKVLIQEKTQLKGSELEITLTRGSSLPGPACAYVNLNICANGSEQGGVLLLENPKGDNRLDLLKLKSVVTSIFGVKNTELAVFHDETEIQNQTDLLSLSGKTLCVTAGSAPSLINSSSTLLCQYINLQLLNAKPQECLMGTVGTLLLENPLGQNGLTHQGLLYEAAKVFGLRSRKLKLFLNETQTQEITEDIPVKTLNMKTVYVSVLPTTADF

[7] = system: Gram-negative bacterial IRS; settings: many Gram-negative bacterial IRS
[8] = system: Pseudomonic fluoscenes (Psefl) enzyme; settings: SA IRS vs Pseudomonic fluoscenes enzyme

MURSA isoleucyl-tRNA synthetase, sequence (P41368 whole entry): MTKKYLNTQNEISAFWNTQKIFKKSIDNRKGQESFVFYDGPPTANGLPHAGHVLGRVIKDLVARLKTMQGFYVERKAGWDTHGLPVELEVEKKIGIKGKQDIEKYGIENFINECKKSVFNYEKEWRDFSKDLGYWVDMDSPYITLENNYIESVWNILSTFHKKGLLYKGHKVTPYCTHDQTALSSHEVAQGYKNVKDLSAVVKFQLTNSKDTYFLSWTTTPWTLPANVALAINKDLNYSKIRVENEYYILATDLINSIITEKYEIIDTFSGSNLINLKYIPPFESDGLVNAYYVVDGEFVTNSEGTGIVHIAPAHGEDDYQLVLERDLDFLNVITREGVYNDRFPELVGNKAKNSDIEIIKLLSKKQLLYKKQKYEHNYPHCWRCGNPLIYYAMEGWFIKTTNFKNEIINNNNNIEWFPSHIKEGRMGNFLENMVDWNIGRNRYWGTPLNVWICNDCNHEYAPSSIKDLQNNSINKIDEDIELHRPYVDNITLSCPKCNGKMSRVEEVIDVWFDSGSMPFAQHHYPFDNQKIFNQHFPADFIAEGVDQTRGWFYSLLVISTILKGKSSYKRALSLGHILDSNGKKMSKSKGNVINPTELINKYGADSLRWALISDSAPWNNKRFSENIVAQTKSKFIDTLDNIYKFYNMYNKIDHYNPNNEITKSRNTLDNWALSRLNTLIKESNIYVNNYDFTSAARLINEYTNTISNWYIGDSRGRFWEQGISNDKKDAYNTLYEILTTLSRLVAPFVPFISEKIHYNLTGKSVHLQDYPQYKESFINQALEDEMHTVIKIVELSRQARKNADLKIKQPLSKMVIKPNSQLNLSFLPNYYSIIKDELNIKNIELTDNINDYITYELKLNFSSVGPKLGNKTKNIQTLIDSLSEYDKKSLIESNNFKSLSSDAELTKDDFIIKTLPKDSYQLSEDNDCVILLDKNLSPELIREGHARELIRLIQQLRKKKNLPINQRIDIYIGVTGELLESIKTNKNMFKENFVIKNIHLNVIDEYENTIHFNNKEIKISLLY

Row | Structure (SMILES) | eradication of nasal carriage of MRSA (MRSA [1]) | eradication of MRSA in skin and virginal infections (MRSA [1]; after failure of intervenous vancomycin therapy) | half-life in vivo (metabolic conversion from pseudomonic acid to monic acid) | effectiveness against MRSA (MRSA [2]) | effectiveness against bacteremia caused by MRSA (MRSA [3]) | mode of inhibition of IRS [4] | sensitivity of MURSA isoleucyl-tRNA synthetase to the antibiotic [5] | sensitivity of human isoleucyl-tRNA synthetase to the antibiotic [6] | concentration for binding the human enzyme relative to bacterial IRS ([6]; higher than for bacterial IRS) | concentration at which mupirocin inhibits bacterial IRS [7] | difference in inhibition between SA IRS and Psefl enzyme [8] | activity of the metabolite (in vivo) | clearance in the urine (in vivo)
1 | C/C(=C\C(=O)OCCCCCCCCC(=O)O)C[C@@H]1OC[C@H](C[C@@H]2O[C@H]2[C@@H](C)[C@H](C)O)[C@@H](O)[C@H]1O [Mupirocin, mupirocin] | very successfully eradicated | eradicated | short | highly effective | not very effective | competitive inhibitor for isoleucine | resistant | resistant | 3 to 4 orders of magnitude | nM concentrations | 10^6 | – | –
2 | C/C(=C\C(=O)O)C[C@@H]1OC[C@H](C[C@@H]2O[C@H]2[C@@H](C)[C@H](C)O)[C@@H](O)[C@H]1O [monic acid] | – | – | – | – | – | – | – | – | – | – | – | inactive | rapidly cleared
